The values that follow come from the Kinase Knowledgebase extract (Sharma et al. 2016).

PIK3CG, sequence (P48736 whole entry, looked up): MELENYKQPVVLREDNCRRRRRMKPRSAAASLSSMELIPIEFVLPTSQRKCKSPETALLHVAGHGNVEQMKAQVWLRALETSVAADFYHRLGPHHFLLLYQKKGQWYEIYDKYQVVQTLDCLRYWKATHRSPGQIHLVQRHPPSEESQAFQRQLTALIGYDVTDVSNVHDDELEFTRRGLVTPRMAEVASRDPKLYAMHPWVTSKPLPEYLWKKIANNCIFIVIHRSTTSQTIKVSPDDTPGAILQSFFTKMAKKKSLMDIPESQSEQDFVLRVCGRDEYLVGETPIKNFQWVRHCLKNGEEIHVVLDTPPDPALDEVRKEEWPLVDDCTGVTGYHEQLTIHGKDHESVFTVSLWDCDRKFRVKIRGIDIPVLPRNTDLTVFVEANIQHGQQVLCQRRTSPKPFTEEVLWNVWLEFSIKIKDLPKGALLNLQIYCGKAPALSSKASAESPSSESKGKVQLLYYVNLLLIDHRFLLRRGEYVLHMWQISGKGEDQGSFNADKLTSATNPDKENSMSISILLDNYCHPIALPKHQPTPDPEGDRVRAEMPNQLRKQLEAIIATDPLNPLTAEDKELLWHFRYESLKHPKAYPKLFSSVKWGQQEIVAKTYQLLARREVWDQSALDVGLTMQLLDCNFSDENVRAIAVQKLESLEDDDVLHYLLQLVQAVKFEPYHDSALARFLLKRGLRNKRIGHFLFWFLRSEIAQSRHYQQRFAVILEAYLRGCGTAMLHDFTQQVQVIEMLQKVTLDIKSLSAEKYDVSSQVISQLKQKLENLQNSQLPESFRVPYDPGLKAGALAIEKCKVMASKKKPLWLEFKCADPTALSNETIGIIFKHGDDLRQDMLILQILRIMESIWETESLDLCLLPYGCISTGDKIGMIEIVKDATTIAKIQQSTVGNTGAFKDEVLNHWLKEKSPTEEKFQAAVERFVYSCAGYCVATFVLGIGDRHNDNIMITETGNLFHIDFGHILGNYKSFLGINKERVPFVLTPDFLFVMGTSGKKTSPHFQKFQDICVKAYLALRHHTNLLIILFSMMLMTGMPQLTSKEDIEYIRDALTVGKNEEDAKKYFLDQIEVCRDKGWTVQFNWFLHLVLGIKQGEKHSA

This experiment has as its target PIK3CG (UniProt P48736). Briefly: Inhibition of PIK3CG Kinase Activity.
With `O=C1NC(=S)S/C1=C\c1ccc2c(c1)N(C(=O)Oc1ccccc1)CCCO2`, the IC50 (in general, the concentration that gives 50% inhibition) was 424 nM. That is a sub-micromolar value. In the case of `CC1(C)C2CCC1(CS(=O)(=O)N1CCOc3ccc(/C=C4\SC(=S)NC4=O)cc31)CC2` it was 330 nM.

In the case of `O=C1NC(=S)S/C1=C\c1ccc2c(c1)N(C(=O)c1ccc3c(c1)C(=O)c1ccccc1C3=O)CCCO2`, the concentration for half-maximal inhibition (IC50) worked out at 4990 nM. The compound `N#Cc1ccc(C(=O)N2CCCOc3ccc(/C=C4\SC(=S)NC4=O)cc32)cc1` came in with an IC50 of 2610 nM.

On to `COc1cc(NC(=O)N2CCCOc3ccc(/C=C4\SC(=S)NC4=O)cc32)cc(OC)c1`, for which the IC50 amounted to 1320 nM.

`O=C1NC(=S)S/C1=C\c1ccc2c(c1)N(C(=O)c1ccco1)CCO2` showed an IC50 of 65 nM. Against the preceding compound, the IC50 is about 20-fold lower.

Turning to `O=C1NC(=S)S/C1=C\c1ccc2c(c1)N(C(=O)C1CCCC1)CCCO2`, the IC50 turned out to be 1000 nM. As for `CC(=O)Oc1ccc(OC(=O)N2CCCOc3ccc(/C=C4\SC(=S)NC4=O)cc32)cc1`, the figure is 640 nM; as for `O=C1NC(=S)S/C1=C\c1ccc2c(c1)N(C(=O)/C=C/c1cccc(C(F)(F)F)c1)CCCO2`, 4010 nM; as for `CN1CCN(Cc2ccccc2C(=O)N2CCOc3ccc(/C=C4\SC(=S)NC4=O)cc32)CC1`, 115 nM. In the case of `O=C1NC(=S)S/C1=C\c1ccc2c(c1)N(C(=O)c1ccc(Cl)c(Cl)c1)CCCO2` it was 1380 nM. As for `Cc1oc(C(C)(C)C)cc1C(=O)N1CCCOc2ccc(/C=C3\SC(=S)NC3=O)cc21`, the figure is 4600 nM. `Cc1ccc(NC(=O)N2CCCOc3ccc(/C=C4\SC(=S)NC4=O)cc32)cc1` had an IC50 of 3500 nM.

`O=C1NC(=S)S/C1=C\c1ccc2c(c1)N(C(=O)/C=C/c1ccccc1)CCCO2`: the half-inhibitory concentration (IC50) turned out to be 1520 nM. As for `O=C1NC(=S)S/C1=C\c1ccc2c(c1)N(C(=O)C1CC1)CCCO2`, the figure is 115 nM; as for `CCCCCCc1ccc(C(=O)N2CCCOc3ccc(/C=C4\SC(=S)NC4=O)cc32)cc1`, 4200 nM. As for `COc1cc(NC(=O)N2CCOc3ccc(/C=C4\SC(=S)NC4=O)cc32)cc(OC)c1`, the figure is 14 nM. In the case of `O=C1NC(=S)S/C1=C\c1ccc2c(c1)N(C(=O)COCc1ccccc1)CCCO2` it was 1650 nM.

Compound `Cc1ccc(OC(=O)N2CCCOc3ccc(/C=C4\SC(=S)NC4=O)cc32)cc1` yielded an IC50 of 704 nM. Compared with the last compound, the IC50 is about 2.3-fold lower. `O=C1NC(=S)S/C1=C\c1ccc2c(c1)N(C(=O)Cc1cccs1)CCCO2` returned an IC50 of 1140 nM. As for `O=C1NC(=S)S/C1=C\c1ccc2c(c1)N(C(=O)c1ccc3occc3c1)CCCO2`, the figure is 1530 nM.

`Cc1cc(C)cc(CN2CCOc3ccc(/C=C4\SC(=S)NC4=O)cc32)c1` returned an IC50 of 650 nM.
